How the values were obtained:
[1] = biological target: T1, HIV reverse transcriptase (RNase H activity) (Human immunodeficiency virus type 1 group M subtype B, UniProt P04585); assay: Inhibition of RNase H / HIV reverse transcriptase (fluorescent probe-target hybrid assay); assay type: biochemical; settings: Table I
T1 construct: HIV reverse transcriptase has an RNase H domain at the C-terminus of its p66 subunit
Text: RNase H is an enzyme responsible for the removal of RNA primers from leading and lagging strands during DNA synthesis. It is an important enzyme for the replication of bacterial, viral and human genomes. HIV reverse transcriptase has an RNase H domain at the C-terminus of its p66 subunit. […] The ability of the compounds of the present invention to inhibit RNase H, and more particularly HIV reverse transcriptase, may be measured or determined by any means known in the art.
Preferably, the RNase H/HIV reverse transcriptase modulatory activity of the compounds of the present invention may be determined by the methods described in a copending U.S. provisional patent Application No. 60/436,125, filed Dec. 19, 2002 and PCT Publication No. WO 2004/059012, filed Dec. 22, 2003, published Jul. 15, 2004, entitled ASSAY FOR RNase ACTIVITY of Olson et al., incorporated herein by reference in their entirety. Specifically, the modulatory activity of a hydantoin derivative of the present invention may be determined by hybridizing a target nucleic acid to a fluorescently labeled oligonucleotide probe complementary to the target nucleic acid and containing a fluorophor at one terminus and a quenching group at the other terminus to obtain a probe-target hybrid, wherein (i) the unhybridized probe adopts a conformation that places the fluorophor and quencher in such proximity that the quencher quenches the fluorescent signal of the fluorophor, and (ii) the formation of the probe-target hybrid causes sufficient separation of the fluorophor and quencher to reduce quenching of the fluorescent signal of the fluorophor. Next, a first and second sample containing the probe-target hybrid are prepared. The probe-target hybrid of the first sample is then contacted with an RNase H enzyme (such as HIV reverse transcriptase) in an amount sufficient to selectively cleave the target nucleic acid and thereby release the intact probe. The probe-target hybrid of the second sample is also contacted with the RNase H enzyme in an amount sufficient to selectively cleave the target nucleic acid and thereby release the intact probe in the presence of a hydantoin derivative of the present invention. The release of the probe in each sample may then be detected by measuring the […] in the fluorescent signal of the fluorophor as compared to the signal of the probe-target hybrid. A comparison of the rate of the decrease in the fluorescent signal of the fluorophor in the two samples is made to determine whether there is a difference in the rate of the decrease in the two samples. […] This method is also useful to identify hydantoin derivatives of the present invention, wherein candidate hydantoin derivatives are screened for their ability to modulate RNase/HIV reverse transcriptase activity.

[2] = biological target: T2, HIV reverse transcriptase (RDDP polymerase activity) (Human immunodeficiency virus type 1 group M subtype B, UniProt P04585); assay: RNA dependent DNA polymerase (RDDP) activity of HIV RT, polyrA-oligodT12-18 / 33P TTP incorporation; assay type: biochemical
T2 construct: HIV Reverse transcriptase (RT) 66/p51; purchased Worthington

Row | SMILES | IC50 [1] [µM] | IC50 [2] [µM]
1 | O=C(c1ccccc1)N1C(=O)N2CCc3ccccc3C2(c2ccccc2)C1=O (stereo not shown) [2-benzoyl-10b-phenyl-6,10b-dihydro-5H-imidazo[5,1-a]isoquinoline-1,3-dione] | 63 | 
2 | O=C1NC(c2ccccc2)(c2ccccc2)C(=O)N1CCCBr [3-(3-bromopropyl)-5,5-diphenyl-2,4-imidazolidinedione] | 56 | > 146
3 | Cc1cc(C(=O)N2C(=O)NC(C)(c3ccccc3)C2=O)ccc1Cl (stereo not shown) [3-(4-chloro-3-methylbenzoyl)-5-methyl-5-phenylimidazolidine-2,4-dione] | 100 | 
4 | Cc1ccc(C(=O)C(C)N2C(=O)NC(C)(c3ccccc3)C2=O)cc1Cl (stereo not shown) [3-[2-(3-chloro-4-methylphenyl)-1-methyl-2-oxoethyl]-5-methyl-5-phenyl-2,4-imidazolidinedione] | 51 | > 103
5 | CC1(c2ccccc2)NC(=O)N(C(=O)/C=C/c2ccc(Cl)c(Cl)c2)C1=O (stereo not shown) [3-[(2E)-3-(3,4-dichlorophenyl)prop-2-enoyl]-5-methyl-5-phenylimidazolidine-2,4-dione] | 52 | > 107
6 | CC1(c2ccccc2)NC(=O)N(C(=O)/C=C/c2ccc(F)c(C(F)(F)F)c2)C1=O (stereo not shown) [3-{(2E)-3-[4-fluoro-3-(trifluoromethyl)phenyl]prop-2-enoyl}-5-methyl-5-phenylimidazolidine-2,4-dione] | 99 | > 115
7 | CCC1(c2ccc(C)cc2)N=C(O)N=C1O (stereo not shown) [4-ethyl-4-(4-methylphenyl)-4H-imidazole-2,5-diol] | 4 | > 184
8 | C=CN1C(=O)NC(C)(C)C1=O [5,5-dimethyl-3-vinyl-imidazolidine-2,4-dione] | 50 | > 107
9 | O=C1NC(=O)C(=Cc2cc(Cl)cc(Cl)c2O)N1 [5-(3,5-Dichloro-2-hydroxy-benzylidene)-imidazolidine-2,4-dione] | 57 | > 102
10 | O=C1NC(=O)C(=Cc2cc(Br)cc(Br)c2O)N1 [5-(3,5-dibromo-2-hydroxy-benzylidene)-imidazolidine-2,4-dione] | 13 | > 111
11 | CCC1(c2ccc(Br)cc2)NC(=O)NC1=O (stereo not shown) [5-(4-bromo-phenyl)-5-ethyl-imidazolidine-2,4-dione] | 64 | 
12 | Cc1ccc(C2(C3CC3)NC(=O)NC2=O)cc1C (stereo not shown) [5-cyclopropyl-5-(3,4-dimethyl-phenyl)-2,4-imidazolidinedione] | 41 | > 122
13 | CC1(c2ccccc2)NC(=O)N(C(=O)/C=C/c2ccccc2)C1=O (stereo not shown) [5-methyl-5-phenyl-3-[(2E)-3-phenylprop-2-enoyl]imidazolidine-2,4-dione] | 46 | > 260
14 | CC1(C)SC2C(NC(=O)C(NC(=O)CN3C(=O)NC(c4ccccc4)(c4ccccc4)C3=O)c3ccccc3)C(=O)N2C1C(=O)O (stereo not shown) [6-[{[{(2,5-dioso-4,4-diphenylimidazolidin-1-yl)acetyl]amino}(phenyl)acetyl]amino}-3,3-dimethyl-7-oxo-4-thia-1-azabicyclo[3.2.0]heptane-2-carboxylic acid] | 4 | > 62
15 | C[C@]1(c2ccccc2)NC(=O)N(C(=O)/C=C/c2ccc(C(F)(F)F)cc2)C1=O [(5R)-5-methyl-5-phenyl-3-{(2E)-3-[4(trifluoromethyl)phenyl]prop-2-enoyl]imidizolidine-2,4-dione] | 58 | > 105
16 | CC[C@@]1(c2ccc(C)cc2)NC(=O)NC1=O [(5S)-5-ethyl-5-(4-methylphenyl)imidazolidine-2,4-dione] | 2 | > 180
17 | C[C@@]1(c2ccccc2)NC(=O)N(C(=O)/C=C/c2ccc(C(F)(F)F)cc2)C1=O [(5S)-5-methyl-5-phenyl-3-{(2E)-3-[4-(trifluoromethyl)phenyl]prop-2-enoyl}imidazolidine-2,4-dione] | 98 | > 100
18 | Cc1cn([C@H]2C[C@H](N=[N+]=[N-])[C@@H](CO)O2)c(=O)[nH]c1=O [AZT, reference compound] |  | < 0.2
19 | CC(C)(C)OC(=O)N1C(=O)N(C(=O)OC(C)(C)C)C2(CCN(Cc3ccccc3)CC2)C1=O [di(tert-butyl) 8-benzyl-2,4-dioxo-1,3,8-triazaspiro[4.5}decane-1,3-dicarboxylate] | 87 | > 103

— patent US20050203156A1, “Hydantoins having RNase modulatory activity” (Wyeth, priority 2004, published 2005)
